The source made the active and inactive calls.

A short description of experiment [1]: OVCAR-3 cell viability loss – plate reader, dry powder samples, PAX8 inhibitor project, dose response (AID 743044). It counts as functional, cell-based.
Experiment [2] is described as follows: OVCAR8 cell viability loss – plate reader, dry powder samples, PAX8 project, dose response (AID 743197). As to conditions: OVCAR-8. It counts as functional, cell-based.
Another experiment deals with Paired box protein Pax-8 (Homo sapiens, UniProt Q06710). Put plainly: PAX8 transcriptional activity inhibition in RMG-I – RMG-I cells, luciferase, cherry-pick, dose response (AID 687027).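 Also: luciferase reporter driven by Pax8 target thyroperoxidase promoter measured by SteadyGlo luminescence.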 It counts as functional, cell-based.
A short description of experiment [3]: toxicity toward immortalized ovarian surface epithelium – cell-based, plate reader, dry powder samples, cytotoxicity control for PAX8 inhibitor project, dose response (AID 743045). It counts as functional.
Experiment [4] can be described thus: A2780 cell killing – plate reader, dry powder samples, cytotoxicity control, dose response (AID 743046). Type of experiment: functional, cell-based.
Experiment [5] is described as follows: OV-90 cell viability loss – plate reader, dry powder, SA8, PAX8 inhibitor project, dose response (AID 743149). Type of experiment: functional, cell-based.
Experiment [6] can be described thus: COV434 cell viability loss – plate reader, dry powder, SA7, cytotoxicity control for PAX8 inhibitor project, dose response (AID 743145). Type of experiment: functional, cell-based.
A short description of experiment [7]: PAX5 cellular inhibition readout – cell-based, plate reader, dry powder samples, selectivity assay for PAX8 inhibitor project, dose response (AID 743047).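 Also: HEK293 cells carrying a Pax5 driven CD19 promoter luciferase reporter; potency of inhibitors that lower reporter luminescence.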 It counts as functional.
Experiment [8] can be described thus: OVCAR4 cell viability loss – plate reader, dry powder, SA11, cytotoxicity control for PAX8 inhibitor project, dose response (AID 743150). The conditions noted are these: OVCAR-4. It counts as functional, cell-based.
A short description of experiment [9]: inhibitors acting on PAX2 in cells – cell-based, plate reader, dry powder samples, selectivity assay for PAX8 inhibitor project, dose response (AID 743048).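 Also: HEK293 cells carrying a WT1 promoter luciferase reporter driven by expressed Pax2; potency is for inhibition of Pax2 driven reporter signal.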 Type of experiment: functional.
Experiment [10] can be described thus: PAX8-dependent cell viability loss – plate reader, dry powder, dose response (AID 743049). It counts as functional, cell-based.
Experiment [11] in a line: Late stage assay provider results from the probe development effort to identify inhibitors of the Plasmodium falciparum M18 Aspartyl Aminopeptidase (M18AAP): radiolabel-based cell-based dose response assay to identify compounds that inhibit P. falciparum growth in RBCs, Set 2.. Type of experiment: functional.
A short description of experiment [12]: growth inhibition of yeast DHODH-expressing 3D7 parasites – SYBR Green, dry powder samples, dose response (AID 1159570).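 Also: parasite growth measured after 72 hours of compound exposure.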 It counts as functional, cell-based.
Experiment [13] is described as follows: growth inhibition of PfATP4-mutant resistant parasites – NITD609-resistant line, SYBR Green, dry powder, dose response (AID 1159571).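 Also: parasites synchronized at ring stage by sorbitol before testing.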 Type of experiment: functional, cell-based.
A short description of experiment [14]: P. falciparum Dd2 growth inhibitors, dose response, SYBR Green, cherry-picked samples (AID 1159567). Type of experiment: functional, cell-based.
Experiment [15] in a line: Dd2 malaria parasite growth inhibition potency – SYBR Green, dry powder samples, dose response (AID 1159566).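 Also: potency for growth inhibition with lower SYBR green DNA signal.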 It counts as functional, cell-based.
Experiment [16] in a line: Dd2 parasite growth inhibition in erythrocytes – SYBR Green, dry powder samples, set 9, dose response (AID 1159568). It counts as functional, cell-based.
Experiment [17] is described as follows: toxicity to human hepatoma HepG2 cells – cell-based, cherry-picked samples, cytotoxicity control, dose response (AID 1159577). Type of experiment: functional.
Experiment [18] is described as follows: cytotoxicity toward HT-29 cells – cell-based, CellTiter-Glo luminescence, IC50, dose response (AID 1117330). Type of experiment: functional.
The nature of experiment [19]: HCT116 cell viability decrease, GSK3B pretreatment – CellTiter-Glo, IC50, dose response (AID 1117339). Type of experiment: functional. As to conditions: HCT-116.
The nature of experiment [20]: CellTiter-Glo luminescence survival assay, SW480 colon tumor line, concentration-response curve, half-maximal inhibitory concentration (AID 1117338). Type of experiment: functional.
Experiment [21] is described as follows: rise of 4N DNA cells, HeLa – IC50, dose response (AID 1117351). It counts as functional, cell-based.
The nature of experiment [22]: SNU-C1 cell viability reduction, dose response, CellTiter-Glo luminescence (AID 1117323). Type of experiment: functional, cell-based.
A short description of experiment [23]: rise of 2N DNA cells, HeLa – IC50, dose response (AID 1117349). Type of experiment: functional, cell-based.
The nature of experiment [24]: cytotoxicity toward Colo320 cells – cell-based, CellTiter-Glo luminescence, IC50, dose response (AID 1117334). The conditions noted are these: COLO 320. It counts as functional.
Experiment [25] in a line: RKO cell viability reduction, dose response, CellTiter-Glo luminescence (AID 1117322). Type of experiment: functional.
A short description of experiment [26]: Reduced DLD-1 viability, concentration-response, CellTiter-Glo luminescence (AID 1117352). Type of experiment: functional.
Experiment [27] in a line: cytotoxicity toward HCT116 cells – cell-based, CellTiter-Glo luminescence, IC50, dose response (AID 1117332). It counts as functional. The conditions noted are these: HCT-116.

Chain of Paired box protein Pax-8 (Q06710 whole entry): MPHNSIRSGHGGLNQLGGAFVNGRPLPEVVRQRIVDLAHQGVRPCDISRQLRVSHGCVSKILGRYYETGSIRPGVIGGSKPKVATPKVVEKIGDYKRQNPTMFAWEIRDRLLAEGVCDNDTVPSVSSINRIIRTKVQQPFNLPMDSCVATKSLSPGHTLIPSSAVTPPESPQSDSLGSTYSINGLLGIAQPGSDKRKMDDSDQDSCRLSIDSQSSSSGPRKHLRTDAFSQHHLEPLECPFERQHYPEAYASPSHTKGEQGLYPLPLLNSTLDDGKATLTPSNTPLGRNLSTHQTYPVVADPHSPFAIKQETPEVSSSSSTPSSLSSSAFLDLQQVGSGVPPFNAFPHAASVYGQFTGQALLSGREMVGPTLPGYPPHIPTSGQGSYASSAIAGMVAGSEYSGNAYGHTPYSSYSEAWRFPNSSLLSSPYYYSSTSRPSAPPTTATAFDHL

Consider `C[C@H]1CCCCO[C@@H](CN(C)Cc2ccc(C(F)(F)F)cc2)[C@@H](C)CN([C@@H](C)CO)C(=O)c2cc(NS(=O)(=O)c3ccc(Cl)cc3)ccc2O1`, for which the AC50 is 11 µM (active) in experiment [1]; 19.7 µM (active) in experiment [2]; 4.39 µM (active) at Paired box protein Pax-8; 36.4 µM (active) in experiment [3]; 0.528 µM (active) in experiment [4].

With `N#C[C@@H]1[C@H](c2ccc(C#CC3CCCCC3)cc2)[C@H](CO)N1S(=O)(=O)c1ccccc1`, the AC50 in experiment [5] was 22.2 µM (active); in [6] it was 36.6 µM (active); in experiment [7], 29.9 µM (active); on Paired box protein Pax-8, 11.1 µM (active); in [8] it was > 70 µM (inactive); in experiment [9], > 32 µM (inactive). Besides, in experiment [10], the AC50 is 25.6 µM (active).

For the compound `CCOc1ccc2nccc(NCCc3ccc(OC)c(OC)c3)c2c1`, the IC50 in experiment [11] was 1.4 µM (active).

For `Oc1ccc(CCNc2ccnc3cc(Cl)ccc23)cc1O`, the IC50 in [11] was 0.62 µM (active).

Take `O=C(c1ccccc1F)N1CC(=O)N2[C@H](C1)[C@@H](c1ccc(-c3ccc(F)cc3)cc1)[C@@H]2CO`: the AC50 in [12] was 1.72 µM (active); in experiment [13] it was 1.09 µM (active); in experiment [14], 1.41 µM (active); in experiment [15] it was 0.497 µM (active).

`COc1ccc(S(=O)(=O)Nc2ccc3c(c2)C(=O)N([C@H](C)CO)C[C@@H](C)[C@H](CN(C)Cc2ccc(C(F)(F)F)cc2)OCCCC[C@@H](C)O3)cc1`: the AC50 in experiment [16] is 3.69 µM (active).

With `C[C@@H]1CN([C@@H](C)CO)S(=O)(=O)c2ccc(/C=C/c3ccccc3)cc2O[C@@H]1CN(C)C(=O)Nc1ccc(F)cc1`, the AC50 in experiment [14] was 5.09 µM (active); in experiment [17] it was 25.5 µM (active).

With `C[C@H]1CCCCO[C@H](CN(C)S(=O)(=O)c2ccc(F)cc2)[C@@H](C)CN([C@@H](C)CO)C(=O)c2cc(N(C)C)ccc2O1`, the AC50 in experiment [16] was 4.91 µM (active).

On to `CCCc1cn(CC[C@H]2CC[C@@H](NS(=O)(=O)c3ccc(-c4ccccc4)cc3)[C@H](CO)O2)nn1`, for which the AC50 in experiment [14] was 1.31 µM (active); in experiment [17], 14.8 µM (active).

Regarding `CC[C@H]1CN2CCc3cc(OC)c(OC)cc3[C@@H]2C[C@@H]1C[C@H]1NCCc2cc(OC)c(OC)cc21` [EMETINE], the IC50 in experiment [18] is 0.0163 µM (active); in experiment [19], 0.001 µM (active); in [20], 0.001 µM (active); in experiment [21], > 10 µM (inactive); in experiment [22], 0.00228 µM (active); in [23], > 10 µM (inactive). Further, the IC50 in experiment [24] is 0.0221 µM (active); in experiment [25], 0.00831 µM (active); in [26], 0.0116 µM (active); in experiment [27] it was 0.0615 µM (active).

These data come from ChEMBL document CHEMBL1201862, “PubChem BioAssay data set” (2004).
